Results as given in patent US7122573B2, “Analogs of green tea polyphenols as chemotherapeutic and chemopreventive agents” (SRI International, priority 2002, dated 2006).

Legend:
Format in all cases: cell-based
[1] = test system: MDA-MB-231 (ER−); test: Growth inhibition assay (MTT, 8 days) in MDA-MB-231 breast cancer cells
Description: (§1) Compounds of the invention were tested for their ability to inhibit growth in two breast cancer cell lines, MCF-7 (ER+) and MDA-MB-231 (ER−).
(§2) The growth inhibition assays were conducted using routine methods. Briefly, the cells were seeded in 24-well plates at a density of 2000 cells per well in 200 μL of […] growth medium. To each well was added 10 μL of DMSO containing the dissolved test compound; final DMSO concentration in each well was not more than 0.5%. Each test compound was assayed at concentrations of 0.4, 2, 10, and 50 μM. The plates were incubated for eight days, with the media and test solutions replaced every third day. On Day 8, the viable cells were measured by the MTT assay, as described in Mosmann et al. (1983), “Rapid Colorimetric Assay for Cellular Growth and Survival: Application to Proliferation and Cytotoxicity,” J. Immunol. Method. 65:55–63. The optical density at 575 nm of each test well was measured and compared to that for control wells, and the data used to calculate the percentage of growth inhibition at different concentrations. The IC50 value (the concentration of growth inhibitor that results in 50% growth inhibition of the cells in culture relative to control cells not exposed to any growth inhibitor) was determined by plotting dose-response curves.
(§3) The calculated IC50 values are set forth in Table 1, with the results representing the average of at least two experiments conducted for each compound at each of the four concentrations.

[2] = test system: MCF-7 (ER+); test: Growth inhibition assay (MTT, 8 days) in MCF-7 breast cancer cells
Description: as §1, §2, §3

[3] = test system: human lung tumor cells (A427); test: Concurrent assay for cell survival; conditions: for surviving cells: highest concentration tested (25 μM)
Description: (§4) An anchorage-independent growth inhibition assay was performed as described in Korytynski, et al. (1996) “The development of an anchorage-independence assay using human lung tumor cells to screen potential chemopreventive agents,” Anticancer Res. 16, 1091–1094; and Sharma, et al. (1997) “The anchorage-independent assay as a screening tool to identify potential chemopreventive agents,” Methods Cell Sci. 19, 9–12. The assay measures the inhibition of colony formation of human lung tumor cells (A427) cells grown in soft agar. In this assay, A427 cells were grown in the presence of the test agent, SR 13196, EGCG or 13-cis-RA Control samples were tested using an equivalent volume of DMSO alone. A concurrent assay for cell survival was also performed.

[4] = test system: human lung tumor cells (A427); test: Anchorage-independent growth inhibition assay (colony formation in soft agar)
Description: as §4

[5] = Homo sapiens, MDA-MB-231, Table 2, procedures repeated with additional compounds
[6] = Homo sapiens, MCF7, Table 2, procedures repeated with additional compounds
[7] = Table 1, MTT on Day 8, average of at least two experiments
[8] = Table 2, procedures repeated with additional compounds

Question: Which results are given for `Cc1cc(C)c2c(c1)O[C@H](c1cc(O)c(O)c(O)c1)[C@H](OC(=O)c1cc(O)c(O)c(O)c1)C2` [SR 13912]?
Answer: IC50 [1, 5]: 62.1 µM; IC50 [2, 6]: 39.6 µM

Question: For `O=C(O[C@@H]1Cc2c(O)cc(O)cc2O[C@@H]1c1cc(O)c(O)c(O)c1)c1cc(O)c(O)c(O)c1` [EGCG, (−)-epigallocatechin-3-gallate], which IC50 [1, 7] is on record?
Answer: The IC50 was 11.9 µM.

Question: What about the IC50 [1, 8] of the same compound?
Answer: The IC50 was 5.76 µM.

Question: What about the IC50 [2, 7] of the same compound?
Answer: The IC50 was 8.22 µM.

Question: And the IC50 [2, 8]?
Answer: The IC50 was 16.8 µM.

Question: And the “Surviving Fraction” value ([3]; 1.56 μM)?
Answer: The value was 0.99.

Question: What about the “Surviving Fraction” value ([3]; 3.12 μM) of the same compound?
Answer: Its value is 0.98.

Question: And the “Surviving Fraction” value ([3]; 6.25 μM)?
Answer: The value was 0.97.

Question: What about the “Surviving Fraction” value ([3]; 12.5 μM) of the same compound?
Answer: Its value is 0.85.

Question: And the “Surviving Fraction” value ([3]; 25 μM)?
Answer: The value was 0.39.

Question: What about the surviving cells [3] of the same compound?
Answer: The surviving cells was 39%.

Question: What about the “% Inhibition (colony formation)” value ([4]; 1.56 μM) of the same compound?
Answer: The value was 0%.

Question: What about the “Observed Colonies” value ([4]; 1.56 μM) of the same compound?
Answer: The value was 398.

Question: And the “% Inhibition (colony formation)” value ([4]; 3.12 μM)?
Answer: The value was 19%.

Question: What about the “Observed Colonies” value ([4]; 3.12 μM) of the same compound?
Answer: The value was 310.

Question: What about the “% Inhibition (colony formation)” value ([4]; 6.25 μM) of the same compound?
Answer: Its value is 25%.

Question: And the “Observed Colonies” value ([4]; 6.25 μM)?
Answer: Its value is 282.

Question: What about the “% Inhibition (colony formation)” value ([4]; 12.5 μM) of the same compound?
Answer: Its value is 40%.

Question: What about the “Observed Colonies” value ([4]; 12.5 μM) of the same compound?
Answer: Its value is 139.

Question: What about the “% Inhibition (colony formation)” value ([4]; 25 μM) of the same compound?
Answer: Its value is 50%.

Question: What about the “Observed Colonies” value ([4]; 25 μM) of the same compound?
Answer: The value was 97.

Question: `COc1cc([C@H]2Oc3cc(O)cc(O)c3C[C@H]2OC(=O)c2cc(C)c(O)c(C)c2)cc(OC)c1OC` [SR 13197] was tested. Which IC50 [1, 5] did it give?
Answer: The IC50 was 55.4 µM.

Question: What about the IC50 [2, 6] of the same compound?
Answer: The IC50 was 124 µM.

Question: For “trans-5,7-DIMETHYL-2-(3,4,5-TRIHYDROXY-PHENYL)-3,4-DIHYDRO-2H-CHROMAN-3-YL, 3,4,5,-TRIHYDROXY-BENZOIC ACID ESTER [SR 13911]”, which IC50 [1, 8] is on record?
Answer: The IC50 was 42 µM.

Question: And the IC50 [2, 8]?
Answer: The IC50 was 23.5 µM.

Question: `COc1cc([C@H]2Oc3cc(O)cc(O)c3C[C@H]2OC(=O)c2cc(C)c(O)c(C)c2)cc(OC)c1OC` (relative stereo) [SR 13196] was tested. Which IC50 ([1]; Homo sapiens, MDA-MB-231, 192 h, Table 1, MTT on Day 8, average of at least two experiments) did it give?
Answer: The IC50 was 12.7 µM.

Question: What about the IC50 ([2]; Homo sapiens, MCF7, 192 h, Table 1, MTT on Day 8, average of at least two experiments) of the same compound?
Answer: The IC50 was 11.1 µM.

Question: And the “Surviving Fraction” value ([3]; 1.56 μM)?
Answer: Its value is 0.71.

Question: And the “Surviving Fraction” value ([3]; 3.12 μM)?
Answer: Its value is 0.41.

Question: What about the “Surviving Fraction” value ([3]; 6.25 μM) of the same compound?
Answer: The value was 0.17.

Question: What about the “Surviving Fraction” value ([3]; 12.5 μM) of the same compound?
Answer: The value was 0.12.

Question: What about the “Surviving Fraction” value ([3]; 25 μM) of the same compound?
Answer: Its value is 0.11.

Question: And the surviving cells [3]?
Answer: The surviving cells was 11%.

Question: And the “Observed Colonies” value ([4]; 1.56 μM)?
Answer: Its value is 268.

Question: And the “Observed Colonies” value ([4]; 3.12 μM)?
Answer: The value was 108.

Question: What about the “Observed Colonies” value ([4]; 6.25 μM) of the same compound?
Answer: The value was 38.

Question: What about the “Observed Colonies” value ([4]; 12.5 μM) of the same compound?
Answer: The value was 28.

Question: What about the “Observed Colonies” value ([4]; 25 μM) of the same compound?
Answer: The value was 8.

Question: `Cc1cc(C)c2c(c1)O[C@H](c1cc(O)c(O)c(O)c1)[C@H](OC(=O)c1cc(C)c(O)c(C)c1)C2` [SR 13913] was tested. Which IC50 [1, 5] did it give?
Answer: The IC50 was 20.1 µM.

Question: What about the IC50 [2, 6] of the same compound?
Answer: Its IC50 is 16.2 µM.

Question: With `Oc1cc(O)c2c(c1)O[C@H](c1cc(O)c(O)c(O)c1)[C@H](O)C2` [EGC (2,3-cis), (−)-epigallocatechin] as the compound, how does the IC50 [1, 7] read?
Answer: The IC50 was 27.3 µM.

Question: What about the IC50 [2, 7] of the same compound?
Answer: Its IC50 is 29.8 µM.

Question: Which results are given for `COc1cc(OC)c2c(c1)OC(c1cc(O)c(O)c(O)c1)[C@H](OC(=O)c1cc(O)c(O)c(O)c1)C2` (stereo partly drawn) [SR 13198, trans-5,7-DIMETHOXY-2-(3,4,5-TRIHYDROXY-PHENYL)-3,4-DIHYDRO-2H-CHROMAN-3-YL, 3,4,5-TRIHYDROXY-BENZOIC ACID ESTER]?
Answer: IC50 [1, 5]: 47.9 µM; IC50 [2, 6]: 58.1 µM

Question: Which “Surviving Fraction” value ([3]; 1.56 μM) does the source give for `CC1=C(/C=C/C(C)=C/C=C/C(C)=C\C(=O)O)C(C)(C)CCC1` [13-cis-RA] here?
Answer: Its value is 0.85.

Question: What about the “Surviving Fraction” value ([3]; 3.12 μM) of the same compound?
Answer: Its value is 0.82.

Question: And the “Surviving Fraction” value ([3]; 6.25 μM)?
Answer: Its value is 0.83.

Question: What about the “Surviving Fraction” value ([3]; 12.5 μM) of the same compound?
Answer: The value was 0.74.

Question: And the “Surviving Fraction” value ([3]; 25 μM)?
Answer: Its value is 0.68.

Question: And the surviving cells [3]?
Answer: The surviving cells was 68%.

Question: And the “% Inhibition (colony formation)” value ([4]; 1.56 μM)?
Answer: The value was 8%.

Question: And the “Observed Colonies” value ([4]; 1.56 μM)?
Answer: The value was 310.

Question: And the “% Inhibition (colony formation)” value ([4]; 3.12 μM)?
Answer: The value was 16%.

Question: And the “Observed Colonies” value ([4]; 3.12 μM)?
Answer: The value was 269.

Question: What about the “% Inhibition (colony formation)” value ([4]; 6.25 μM) of the same compound?
Answer: Its value is 28%.

Question: What about the “Observed Colonies” value ([4]; 6.25 μM) of the same compound?
Answer: The value was 206.

Question: And the “% Inhibition (colony formation)” value ([4]; 12.5 μM)?
Answer: The value was 35%.

Question: And the “Observed Colonies” value ([4]; 12.5 μM)?
Answer: Its value is 179.

Question: What about the “% Inhibition (colony formation)” value ([4]; 25 μM) of the same compound?
Answer: The value was 43%.

Question: What about the “Observed Colonies” value ([4]; 25 μM) of the same compound?
Answer: The value was 142.
